Consider 30 molecules from patent publication US20060116390A1, “Hepatitis c virus inhibitors” (priority 2003, published 2006).

Read-outs that look alike come from different tables or passages of the source.

This test deals with HCV proteins in Rep5.1 cells (replicon cell line). The experiment in a line: Inhibitory activity of HCV: cell-based ELISA in replicon cell line Rep5.1 (decrease of HCV proteins). Also on record: species or system hepatitis C virus. The method in brief:
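HCV protein loss was quantified by ELISA on methanol/acetone-fixed cells 72 h after drug addition, probing with selected HCV-positive human plasma, and IC50 was defined as 50% reduction relative to untreated wells. The cells were Rep5.1 replicon cells cultured in DMEM-10 with 500 μg/ml G418, plated at 5000 per well and dosed with serial dilutions after 4 h attachment.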

Setting [1] is: Hepatitis C virus, 72 h, Rep5.1 cells, 72 hours with drug, concentration at which 50% of HCV proteins was decreased, Table 2, read-out: IC50.
[2] abbreviates: Hepatitis C virus, 72 h, Rep5.1 cells, 72 hours with drug, decrease of HCV proteins measured by HCV antibody, Table 1, read-out: Level (IC50 values classified).

In the case of `CC1=C(C(=O)OCCc2ccsc2)C(C(F)F)NC(=S)N1` (centres unmarked) [80′, 4-difluoromethyl-6-methyl-2-thioxo-1,2,3,4-tetrahydro-pyrimidine-5-carboxylic acid 2-thiophen-3-yl-ethyl ester], the IC50 under setting [1] worked out at 11000 nM and the IC50 under setting [2] lay in the range of 10000 to 20000 nM.
On the same counts, the results for `CC1=C(C(=O)OCc2ccccn2)CNC(=S)N1` [Compound 154, 6-methyl-2-thioxo-1,2,3,4-tetrahydro-pyrimidine-5-carboxylic acid pyridin-2-ylmethyl ester] are more than 100000 nM and more than 20000 nM.
The matching figures for `CC1=C(C(=O)OCc2c(C)nn(-c3ccccc3)c2C)CNC(=S)N1` [Compound 181, 6-methyl-2-thioxo-1,2,3,4-tetrahydro-pyrimidine-5-carboxylic acid 3,5-dimethyl-1-phenyl-1H-pyrazol-4-ylmethyl ester]: more than 100000 nM and more than 20000 nM.
Consider `O=C(OCc1ccccc1)C1=C(C(F)(F)F)NC(=S)NC1` [Compound 146, 2-thioxo-6-trifluoromethyl-1,2,3,4-tetrahydro-pyrimidine-5-carboxylic acid benzyl ester], for which the IC50 by setting is: under setting [1], more than 100000 nM; under setting [2], more than 20000 nM.
On to `COC(=O)CCCCCCCCCOC(=O)C1=C(C)NC(=S)NC1` [Compound 198, 6-methyl-2-thioxo-1,2,3,4-tetrahydro-pyrimidine-5-carboxylic acid 9-methoxycarbonyl-nonyl ester], for which the half-inhibitory concentration (IC50) reads like this: under setting [1], 10000 nM; under setting [2], 1000 to 10000 nM.
The matching figures for `CCc1ccc(CCOC(=O)C2=C(C)NC(=S)NC2CO)o1` (centres unmarked) [65″, 4-hydroxymethyl-6-methyl-2-thioxo-1,2,3,4-tetrahydro-pyrimidine-5-carboxylic acid 2-(5-ethyl-furan-2-yl)-ethyl ester]: 1400 nM and 1000 to 10000 nM.
`CC1=C(C(=O)OCCCc2cccs2)CNC(=S)N1` [9′, 6-methyl-2-thioxo-1,2,3,4-tetrahydro-pyrimidine-5-carboxylic acid 3-thiophen-2-yl-propyl ester]: the half-maximal inhibitory concentration (IC50) under setting [1] was less than 400 nM and the IC50 under setting [2] is less than 1000 nM.
With `CC1=C(C(=O)OCCc2ccc(N(C)CC3CC3)c([N+](=O)[O-])c2)C(CO)NC(=S)N1` (centres unmarked) [98″, 4-Hydroxymethyl-6-methyl-2-thioxo-1,2,3,4-tetrahydro-pyrimidine-5-carboxylic acid 2-[4-(cyclopropylmethyl-methyl-amino)-3-nitro-phenyl]-ethyl ester], the IC50 under setting [1] is 1000 nM and the IC50 under setting [2] is less than 1000 nM.
With `O=C(OCc1ccccc1)C1=C(c2cccc3ccccc23)NC(=S)NC1` [Compound 17, 6-naphthalen-1-yl-2-thioxo-1,2,3,4-tetrahydro-pyrimidine-5-carboxylic acid benzyl ester], the IC50 under setting [1] stood at 100000 nM and the half-inhibitory concentration (IC50) under setting [2] is more than 20000 nM.
For `CC1=C(C(=O)OCCc2cccc([N+](=O)[O-])c2)C(COC(=O)OCC2COC(C)(C)O2)NC(=S)N1` (centres unmarked) [77″, 4-(2,2-dimethyl-[1,3]dioxolan-4-ylmethoxycarbonyloxymethyl)-6-methyl-2-thioxo-1,2,3,4-tetrahydro-pyrimidine-5-carboxylic acid 2-(3-nitro-phenyl)-ethyl ester], the concentration for half-maximal inhibition (IC50) is 5600 nM under setting [1] and 1000 to 10000 nM under setting [2].
The matching figures for `CC1=C(C(=O)OCCc2ccc(N3CCCC3)c([N+](=O)[O-])c2)C(CO)NC(=S)N1` (centres unmarked) [99″, 4-Hydroxymethyl-6-methyl-2-thioxo-1,2,3,4-tetrahydro-pyrimidine-5-carboxylic acid 2-(3-nitro-4-pyrrolidin-1-yl-phenyl)-ethyl ester]: 1000 nM and less than 1000 nM.
`CC1=C(C(=O)OCCc2ccc(F)cc2)C(CF)NC(=S)N1` (centres unmarked) [32′, 4-fluoromethyl-6-methyl-2-thioxo-1,2,3,4-tetrahydro-pyrimidine-5-carboxylic acid 2-(4-fluoro-phenyl)-ethyl ester]: the IC50 under setting [1] came out at 900 nM and the 50% inhibitory concentration (IC50) under setting [2] was less than 1000 nM.
On to `CC1=C(C(=O)O[C@H](C)c2ccccc2)CNC(=S)N1` (racemic) [Compound 26, 6-methyl-2-thioxo-1,2,3,4-tetrahydro-pyrimidine-5-carboxylic acid (R,S)-1-phenyl-ethyl ester], for which, for the setting “Rep5.1 cells, 72 hours with drug, concentration at which 50% of HCV proteins was decreased, Table 2, read-out: IC50”, the IC50 turned out to be 3000 nM.
With `CCOC(=O)COC(=O)OCC1NC(=S)NC(C)=C1C(=O)OCCc1cccc([N+](=O)[O-])c1` (centres unmarked) [83″, 4-ethoxycarbonylmethoxycarbonyloxymethyl-6-methyl-2-thioxo-1,2,3,4-tetrahydro-pyrimidine-5-carboxylic acid 2-(3-nitro-phenyl)-ethyl ester], the half-inhibitory concentration (IC50) is 6100 nM under setting [1] and 1000 to 10000 nM under setting [2].
As to `CC1=C(C(=O)OCC(Br)=CBr)CNC(=S)N1` [Compound 193, 6-methyl-2-thioxo-1,2,3,4-tetrahydro-pyrimidine-5-carboxylic acid 2,3-dibromo-allyl ester], the half-maximal inhibitory concentration (IC50) runs as follows: under setting [1], 1000 nM; under setting [2], less than 1000 nM.
On to `CC1=C(C(=O)OCC2CC3CCC2C3)CNC(=S)N1` (centres unmarked) [Compound 151, 6-methyl-2-thioxo-1,2,3,4-tetrahydro-pyrimidine-5-carboxylic acid bicyclo[2.2.1]hept-2-ylmethyl ester], for which the IC50 (Hepatitis C virus, 72 h) is less than 400 nM and the IC50 (Hepatitis C virus, 72 h, read-out: Level (IC50 values classified)) is less than 1000 nM.
Turning to `CC1=C(C(=O)OCc2cccc(SC(F)(F)F)c2)C(CF)NC(=S)N1` (centres unmarked) [72′, 4-fluoromethyl-6-methyl-2-thioxo-1,2,3,4-tetrahydro-pyrimidine-5-carboxylic acid 3-trifluoromethylsulfanyl-benzyl ester], the half-maximal inhibitory concentration (IC50) is, setting by setting: under setting [1], less than 400 nM; under setting [2], less than 1000 nM.
For the molecule `CC1=C(C(=O)OCCCc2ccco2)C(CF)NC(=S)N1` (centres unmarked) [Compound 270, 4-fluoromethyl-6-methyl-2-thioxo-1,2,3,4-tetrahydro-pyrimidine-5-carboxylic acid 3-furan-2-yl-propyl ester], the IC50 was 5000 nM under setting [1] and 1000 to 10000 nM under setting [2].
On to `CCOc1ccc(COC(=O)C2=C(C)NC(=S)NC2)cc1` [Compound 71, 6-methyl-2-thioxo-1,2,3,4-tetrahydro-pyrimidine-5-carboxylic acid 4-ethoxy-benzyl ester], for which the IC50 reads like this: under setting [1], 2500 nM; under setting [2], 1000 to 10000 nM.
In the case of `CC1=C(C(=O)OCCCc2cccs2)C(CF)NC(=S)N1` (centres unmarked) [10′, 4-fluoromethyl-6-methyl-2-thioxo-1,2,3,4-tetrahydro-pyrimidine-5-carboxylic acid 3-thiophen-2-yl-propyl ester], the IC50 under setting [1] was found to be 1200 nM and the IC50 under setting [2] was in the range of 1000 to 10000 nM.
With `O=C(OCc1ccccc1)C1=C(Cc2ccccc2)NC(=S)NC1` [Compound 18, 6-benzyl-2-thioxo-1,2,3,4-tetrahydro-pyrimidine-5-carboxylic acid benzyl ester], the IC50 is 5000 nM under setting [1] and 1000 to 10000 nM under setting [2].
The matching figures for `COc1cc(COC(=O)C2=C(C)NC(=S)NC2)cc(OC)c1` [Compound 81, 6-methyl-2-thioxo-1,2,3,4-tetrahydro-pyrimidine-5-carboxylic acid 3,5-dimethoxy-benzyl ester]: 3000 nM and 1000 to 10000 nM.
On to `CC(=O)OCC1NC(=S)NC(C)=C1C(=O)OCCCc1cccs1` (centres unmarked) [23″, 4-acetoxymethyl-6-methyl-2-thioxo-1,2,3,4-tetrahydro-pyrimidine-5-carboxylic acid 3-thiophen-2-yl-propyl ester], for which the half-inhibitory concentration (IC50) runs as follows: under setting [1], 9000 nM; under setting [2], 1000 to 10000 nM.
As for `CC1=C(C(=O)OCCc2cc(C)cc(C)c2)CNC(=S)N1` [Compound 175, 6-methyl-2-thioxo-1,2,3,4-tetrahydro-pyrimidine-5-carboxylic acid 2-(3,5-dimethylphenyl)-ethyl ester], the half-inhibitory concentration (IC50) by setting is: under setting [1], less than 400 nM; under setting [2], less than 1000 nM.
For the molecule `CC1=C(C(=O)OC(C)Cc2ccsc2Br)C(CF)NC(=S)N1` (centres unmarked) [27′, 4-fluoromethyl-6-methyl-2-thioxo-1,2,3,4-tetrahydro-pyrimidine-5-carboxylic acid 2-(2-bromo-thiophen-3-yl)-1-methyl-ethyl ester], the IC50 under setting [1] is less than 400 nM and the IC50 under setting [2] is less than 1000 nM.
In the case of `CCOc1ccccc1COC(=O)C1=C(C)NC(=S)NC1CF` (centres unmarked) [Compound 263, 4-fluoromethyl-6-methyl-2-thioxo-1,2,3,4-tetrahydro-pyrimidine-5-carboxylic acid 2-ethoxy-benzyl ester], the IC50 was 1700 nM under setting [1] and less than 1000 nM under setting [2].
Consider `COc1ccc(Cl)cc1COC(=O)C1=C(C)NC(=S)NC1CF` (centres unmarked) [36′, 4-fluoromethyl-6-methyl-2-thioxo-1,2,3,4-tetrahydro-pyrimidine-5-carboxylic acid 5-chloro-2-methoxy-benzyl ester], for which the concentration for half-maximal inhibition (IC50) by setting is: under setting [1], 1700 nM; under setting [2], 1000 to 10000 nM.
In the case of `CC1=C(C(=O)OCCc2ccccc2)CNC(=S)N1` [Compound 34, 6-methyl-2-thioxo-1,2,3,4-tetrahydro-pyrimidine-5-carboxylic acid phenethyl ester], the IC50 under setting [1] came out at 2000 nM and the IC50 under setting [2] was 1000 to 10000 nM.
`CC1=C(C(=O)OCc2ccc(C)c(C)c2)CNC(=S)N1` [Compound 76, 6-methyl-2-thioxo-1,2,3,4-tetrahydro-pyrimidine-5-carboxylic acid 3,4-dimethyl-benzyl ester]: the IC50 runs as follows: under setting [1], 600 nM; under setting [2], less than 1000 nM.
Turning to `CCOc1ccccc1COC(=O)C1=C(C)NC(=S)NC1` [Compound 66, 6-methyl-2-thioxo-1,2,3,4-tetrahydro-pyrimidine-5-carboxylic acid 2-ethoxy-benzyl ester], the IC50 is 500 nM under setting [1] and less than 1000 nM under setting [2].
